Laboratory results taken from PubChem BioAssay (NCI).
“And” between values parts separate entries of the source, which are not always exact repeats. Equal entries are not always repeated.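 Where inhibition never reached the appropriate level, the endpoint shown equals the highest concentration tested. Otherwise, values were interpolated linearly from a five-concentration, 48-hour dose response in 96-well plates. GI50: concentration for 50% inhibition of growth. The concentration for full growth arrest is given as TGI.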

Legend:
Test in all cases: NCI tumour cell line growth inhibition, 48 h
SNB-75 CNS = test system: SNB-75 CNS
T-47D breast = test system: T-47D breast
SR leukemia = test system: SR leukemia
UO-31 renal = test system: UO-31 renal
BT-549 breast = test system: BT-549 breast
MALME-3M melanoma = test system: MALME-3M melanoma
ACHN renal = test system: ACHN renal
CCRF-CEM leukemia = test system: CCRF-CEM leukemia
U251 CNS = test system: U251 CNS
HCC-2998 colon = test system: HCC-2998 colon

Row | SMILES | TGI (SNB-75 CNS) | TGI (T-47D breast) | TGI (SR leukemia) [µM] | TGI (UO-31 renal) | TGI (BT-549 breast) | TGI (MALME-3M melanoma) | TGI (ACHN renal) | TGI (CCRF-CEM leukemia) [µM] | TGI (U251 CNS) | TGI (HCC-2998 colon) | GI50 (SNB-75 CNS) | GI50 (T-47D breast) | GI50 (SR leukemia) [µM] | GI50 (UO-31 renal) | GI50 (BT-549 breast) | GI50 (MALME-3M melanoma) | GI50 (ACHN renal) | GI50 (CCRF-CEM leukemia) [µM] | GI50 (U251 CNS) | GI50 (HCC-2998 colon)
1 | CCN(CC)C(=O)COc1cc2c(O)c3c(O)c(C)c4c(c13)C(=O)C(C)(OC=CC(OC)C(C)C(OC(C)=O)C(C)C(O)C(C)C(O)C(C)C=CC=C(C)C(=O)N2)O4 (stereo not given) | > 100 µM | > 100 µM | > 100 | > 100 µM | > 100 µM | > 100 µM | > 100 µM | > 100 | > 100 µM | > 100 µM |  |  |  |  |  |  |  |  |  | 
2 | Brc1cccc(-c2cc(-c3ccc4nccnc4c3)[nH]n2)c1 | 2.38 µM | > 250 µM | > 104 | > 250 µM | > 250 µM | > 250 µM | > 250 µM | > 250 | 75.2 µM | > 250 µM | 0.674 µM | 1.24 µM | 0.139 | 1.9 µM | 2.15 µM | 1.3 µM | 1.72 µM | 0.864 | 0.938 µM | 3.25 µM
3 | Nc1ncccc1-c1nc2ccc(-c3ccccc3)nc2n1-c1ccc(C2(N)CCC2)cc1 | 1.7 µM | 0.158 µM | 4.75 | 2.03 µM | 5.14 µM | 1.84 µM | 3.19 µM | 9.86 | 2.31 µM | 2.77 µM | 0.0859 µM | < 0.0118 µM | 1.74 | 0.278 µM | 0.344 µM | 0.197 µM | 1.14 µM | 0.437 | 0.746 µM | 1.19 µM
4 | O=C(O)COc1ccc(C(=O)/C(SS/C(C(=O)c2ccc(OCC(=O)O)c(Cl)c2Cl)=C2\C=C(c3ccc(Br)cc3)SS2)=C2/C=C(c3ccc(Br)cc3)SS2)c(Cl)c1Cl | 45.4 µM | 8.61 µM | 8.59 | 20.2 µM | 67.3 µM | 41.9 µM | 22 µM | 17 | 28.2 µM | > 42.8 µM |  |  |  |  |  |  |  |  |  | 
5 | Cn1nnc2c(C(N)=O)ncn2c1=O | > 100 µM | > 100 µM | > 100 | > 100 µM | > 100 µM | > 100 µM | > 100 µM | > 100 | > 100 µM | > 100 µM |  |  |  |  |  |  |  |  |  | 
6 | NS(=O)(=O)c1cccc(-c2ccc3c(NC(=O)C4CC4)n[nH]c3c2)c1 | > 25 µM | > 25 µM | > 25 | > 25 µM | > 25 µM | > 25 µM | > 25 µM | > 25 | > 25 µM | > 25 µM | > 13.8 µM | 13.3 µM | 3.59 | > 25 µM | > 21 µM | > 19.8 µM | > 25 µM | 8.51 | 12.8 µM | > 22.1 µM
7 | O=S(=O)(NC1=NCCN1C(=S)SN1CCn2c1nsc2=S)c1cccc(OC(F)(F)F)c1 | 38.9 µM | 39.4 µM | > 100 | 28.1 µM | > 100 µM | 23.3 µM | 26.3 µM | 4.22 | 30.9 µM | 16.1 µM | 16.2 µM | 12.3 µM | 2.77 | 14.1 µM | 25.7 µM | 6.75 µM | 13.5 µM | 2.16 | 17.2 µM | 5.16 µM
8 | CC1(C)CC2=C(Sc3ccccc3N2)C(=O)C1C(=O)C(=O)Nc1cc(Cl)ccc1Cl (stereo not given) | > 100 µM | > 100 µM | > 100 | > 100 µM | > 100 µM | > 100 µM | > 100 µM | > 100 | > 100 µM | > 100 µM |  |  |  |  |  |  |  |  |  | 
9 | CCN(CC)C(=S)SSC(=S)N(CC)CC | > 56.7 µM and 57.3 µM | 51.3 µM and 39.3 µM | 34.4 | 31.9 µM and 49 µM | 38 µM and 44.2 µM | 37.5 µM and 50 µM | 36.9 µM and 34.4 µM | 27.6 | 31 µM and 30.7 µM | > 67.9 µM and 124 µM | 20.7 µM and 18.2 µM | 15.7 µM and 13 µM | 0.785 | 15.6 µM and 19.7 µM | 19.2 µM and 19.9 µM | 18 µM and 21 µM | 19 µM and 18 µM | 10.3 | 15.8 µM and 13.7 µM | 28.7 µM and 31.3 µM
10 | Cc1c2ccncc2c(C)c2c1c1cc(CO)ccc1n2C | 2.7 µM | 3.52 µM | 2.65 | 3.96 µM | 7.84 µM | 2.51 µM | 9.39 µM | 4.18 | 1.94 µM | 3.42 µM | 1.07 µM | 0.268 µM | 0.268 | 0.304 µM | 1.73 µM | 0.622 µM | 0.362 µM | 0.545 | 0.293 µM | 0.72 µM
11 | C=C1C(=O)O[C@H]2[C@H]1CC/C(CNC(=O)/C=C/c1ccccc1)=C\CC[C@@]1(C)O[C@@H]21 | 4.74 µM | 4.3 µM | 4.97 | 2.56 µM | 3.47 µM | 3.29 µM | 2.03 µM | 1.3 | 3.55 µM | 3.31 µM | 1.67 µM | 1.44 µM | 0.38 | 1.21 µM | 1.46 µM | 1.45 µM | 0.755 µM | 0.342 | 1.77 µM | 1.78 µM
12 | NC(=O)c1cccc(-c2cc(C(N)=O)ccc2Cl)c1 | 5.5 µM | > 100 µM | 18.3 | > 100 µM | > 100 µM | > 100 µM | > 100 µM | > 100 | > 100 µM | > 100 µM | 1.1 µM | 4.56 µM | 0.389 | 4.61 µM | 6.82 µM | 3.98 µM | 6.46 µM | 2.19 | 2.88 µM | 7.43 µM
13 | O=c1c(O)cccn1CCCN(CCCn1cccc(O)c1=O)CCn1cccc(O)c1=O | 88.2 µM | > 100 µM | > 100 | > 100 µM | > 100 µM | 85.9 µM | > 100 µM | 3.79 | > 100 µM | > 100 µM | 6.1 µM | 5.64 µM | 0.522 | 7.6 µM | 10.5 µM | 9.72 µM | 7.15 µM | 0.386 | 1.84 µM | 5.18 µM
14 | NNc1c2ccccc2nc2ccccc12 | 17.8 µM | 73.4 µM | 19.8 | 19.5 µM | 36.8 µM | 36.1 µM | 33.9 µM | > 100 | 40.6 µM | 63.2 µM | 2.67 µM | 6.08 µM | 3.4 | 2.76 µM | 4.15 µM | 5.03 µM | 5.31 µM | 0.688 | 4.89 µM | 7.59 µM
15 | Cc1oc2c(c1C(=O)N1CC[C@@H](N)C1)C(=O)c1c(c(O)c3ccccc3c1O)C2=O | 15.4 µM | 7.86 µM | 3.48 | 2.44 µM | 22.5 µM | 7.62 µM | 11.1 µM | 4.33 | 9.27 µM | 11.7 µM | 2.11 µM | 0.863 µM | 0.224 | 0.421 µM | 8.83 µM | 1.78 µM | 0.629 µM | 1.01 | 1.27 µM | 3.11 µM
16 | O=[N+]([O-])c1ccc2c(Nc3ccccc3-c3ccccc3Nc3c4ccccc4nc4cc([N+](=O)[O-])ccc34)c3ccccc3nc2c1 | 34.5 µM | 20.3 µM | 15.4 | 28.8 µM | 7.74 µM | 50.2 µM | 49 µM | 37.6 | 22.9 µM | 16.6 µM |  |  |  |  |  |  |  |  |  | 
17 | CCOC(=O)C1=C(C)N2C(=NC3=C(CCC/C3=C\c3ccc(Cl)cc3)C2c2ccc(Cl)cc2)S1 (stereo not given) | 51.3 µM | 28.3 µM | 3.95 | 3.85 µM | 3.52 µM | 35.5 µM | 33.6 µM | 7.87 | 4.06 µM | 3.19 µM | 9.11 µM | 3.61 µM | 1.65 | 1.7 µM | 1.53 µM | 11.3 µM | 3.64 µM | 2.59 | 1.86 µM | 1.79 µM
